Laboratory results reported in publication PMC6580715 (Clinical Medicine Insights. Endocrinology and Diabetes, 2019).
No end group written: not given here.

Key:
BRIN-BD11 beta-cells [1] = experiment: Beta-cell proliferation, Ki-67 staining, BRIN-BD11; assay type: cell-based, rodent; conditions: BRIN BD11, 10^-8 and 10^-6 M, n = 3
1.1B4 beta-cells = experiment: Beta-cell proliferation, Ki-67 staining, 1.1B4; assay type: cell-based, human; conditions: 1.1B4, 10^-8 and 10^-6 M, n = 3
DPP-4 = experiment: 50 mM triethanolamine/HCl; conditions: 37°C, up to 8 hours
BRIN-BD11 beta-cells [2] = experiment: In vitro insulin secretion from BRIN-BD11 beta-cells; assay type: cell-based, rodent; conditions: peptides 10^-12-10^-6 M, 20-minute incubation, insulin radioimmunoassay, n = 8, vs 16.7 mM glucose
BRIN-BD11 beta-cells [3] = experiment: Protection against cytokine-induced apoptosis, TUNEL, BRIN-BD11; assay type: cell-based, rodent; conditions: n = 3

fragment found (DPP-4)	Substance	beta-cell proliferation vs control cultures (BRIN-BD11 beta-cells [1])	beta-cell proliferation vs control cultures (1.1B4 beta-cells)	insulin secretion at 16.7 mM glucose (GSIS) (BRIN-BD11 beta-cells [2])	cytokine-induced apoptosis vs cytokine cocktail control (BRIN-BD11 beta-cells [3]; BRIN BD11, 10^-8 M only, cytokine cocktail)	cytokine-induced apoptosis vs cytokine cocktail control (BRIN-BD11 beta-cells [3]; BRIN BD11, 10^-8 and 10^-6 M, cytokine cocktail (IL-1β, IFNγ, TNFα))	protection against apoptosis compared with PYY(1-36) (BRIN-BD11 beta-cells [3]; BRIN BD11, same concentration, cytokine cocktail)
	GLP-1: GLP-1 positive control (HAEGTFTSDVSSYLEGQAAKEFIAWLVKGR; ends and bridges not checked; UniProt P01275 98-127, looked up) [reference compound]	significantly (P < .05 to P < .001) increased	significantly (P < .05 to P < .001) increased				
PYY(3-36)(Lys^12PAL), 8 h	YPIKPEAPGEDK(PAL)SPEELNRYYASLRHYLNLVTRQRY						
	YPIKPEAPGEDK(PAL)SPEELNRYYASLRHYLNLVTRQRY [PYY(1-36)(Lys^12PAL)]		significantly increased (P < .05 to P < .01) the proliferation of both beta-cell lines	had no impact on GSIS	barring PYY(1-36)(Lys^12PAL) at 10^-8 M	offered some protection against apoptosis	significantly (P < .05 to P < .01) less efficacious
